Results reported in US4032625A, “Bone-seeking technetium-99m complex” (priority 1975, dated 1977).
Like-named read-outs stand apart in the source and are kept apart here.

Settings: 2 Hrs

## [85Sr] [^85 Sr]
0.1 mg/kg AEDP
  % Dose in Whole Organ: Blood: 2.48 % Dose
  % Dose in Whole Organ: Kidneys: 0.324 % Dose
  % Dose in Whole Organ: Liver: 0.654 % Dose
  % Dose in Whole Organ: Marrow: 0.244 % Dose
  % Dose in Whole Organ: Muscle: 5.15 % Dose
  % Dose in Whole Organ: W. Femur: 3.27 % Dose
  % Dose in Whole Organ: W. Tibia: 2.99 % Dose
  % Dose/1% Body weight: Blood: 0.354 % Dose/1% Body weight
  % Dose/1% Body weight: Bone Ave: 10.48 % Dose/1% Body weight
  % Dose/1% Body weight: Femur: 10.97 % Dose/1% Body weight
  % Dose/1% Body weight: Kidneys: 0.441 % Dose/1% Body weight
  % Dose/1% Body weight: Liver: 0.182 % Dose/1% Body weight
  % Dose/1% Body weight: Marrow: 0.166 % Dose/1% Body weight
  % Dose/1% Body weight: Muscle: 0.136 % Dose/1% Body weight
  % Dose/1% Body weight: Pelvis: 8.66 % Dose/1% Body weight
  % Dose/1% Body weight: Spine: 10.56 % Dose/1% Body weight
  % Dose/1% Body weight: Tibia: 11.71 % Dose/1% Body weight
  % Dose: Urine: 12.1 % Dose
0.1 mg/kg EHDP
  % Dose in Whole Organ: Blood: 3.10 % Dose
  % Dose in Whole Organ: Kidneys: 0.30 % Dose
  % Dose in Whole Organ: Liver: 0.64 % Dose
  % Dose in Whole Organ: Marrow: 0.43 % Dose
  % Dose in Whole Organ: One Femur: 3.42 % Dose
  % Dose/1%-body weight: Blood: 0.443 % Dose/1%-body weight
  % Dose/1%-body weight: Femur: 10.9 % Dose/1%-body weight
  % Dose/1%-body weight: Kidney: 0.513 % Dose/1%-body weight
  % Dose/1%-body weight: Liver: 0.230 % Dose/1%-body weight
  % Dose/1%-body weight: Marrow: 0.195 % Dose/1%-body weight
  % Dose: Urine: 11.31 % Dose
0.1 mg/kg MDP
  % Dose in Whole Organ: Blood: 3.95 % Dose
  % Dose in Whole Organ: Kidneys: 0.66 % Dose
  % Dose in Whole Organ: Liver: 1.05 % Dose
  % Dose in Whole Organ: Marrow: 0.57 % Dose
  % Dose in Whole Organ: Muscle: 9.32 % Dose
  % Dose in Whole Organ: One Femur: 2.80 % Dose
  % Dose/1% Body weight: Blood: 0.56 % Dose/1% body weight
  % Dose/1% Body weight: Femur: 10.0 % Dose/1% body weight
  % Dose/1% Body weight: Kidneys: 1.00 % Dose/1% body weight
  % Dose/1% Body weight: Liver: 0.30 % Dose/1% body weight
  % Dose/1% Body weight: Marrow: 0.26 % Dose/1% body weight
  % Dose/1% Body weight: Muscle: 0.22 % Dose/1% body weight
  % Dose/1% Body weight: Pelvis: 12.2 % Dose/1% body weight
  % Dose/1% Body weight: Spine: 8.45 % Dose/1% body weight
  % Dose/1% Body weight: Tibia: 6.05 % Dose/1% body weight
  % Dose/1% body weight: Ave Bone: 9.17 % Dose/1% body weight
  % Dose: Urine: 15.4 % Dose
0.5 mg/kg AEDP
  % Dose in Whole Organ: Blood: 4.36 % Dose
  % Dose in Whole Organ: Kidneys: 0.384 % Dose
  % Dose in Whole Organ: Liver: 0.720 % Dose
  % Dose in Whole Organ: Marrow: 0.456 % Dose
  % Dose in Whole Organ: Muscle: 6.51 % Dose
  % Dose in Whole Organ: W. Femur: 2.75 % Dose
  % Dose in Whole Organ: W. Tibia: 2.42 % Dose
  % Dose/1% Body weight: Blood: 0.624 % Dose/1% Body weight
  % Dose/1% Body weight: Bone Ave: 10.78 % Dose/1% Body weight
  % Dose/1% Body weight: Femur: 10.43 % Dose/1% Body weight
  % Dose/1% Body weight: Kidneys: 0.924 % Dose/1% Body weight
  % Dose/1% Body weight: Liver: 0.270 % Dose/1% Body weight
  % Dose/1% Body weight: Marrow: 0.207 % Dose/1% Body weight
  % Dose/1% Body weight: Muscle: 0.151 % Dose/1% Body weight
  % Dose/1% Body weight: Pelvis: 11.42 % Dose/1% Body weight
  % Dose/1% Body weight: Spine: 9.87 % Dose/1% Body weight
  % Dose/1% Body weight: Tibia: 11.37 % Dose/1% Body weight
  % Dose: Urine: 10.47 % Dose
0.5 mg/kg EHDP
  % Dose in Whole Organ: Blood: 4.43 % Dose
  % Dose in Whole Organ: Kidneys: 0.48 % Dose
  % Dose in Whole Organ: Liver: 0.76 % Dose
  % Dose in Whole Organ: Marrow: 0.34 % Dose
  % Dose in Whole Organ: One Femur: 2.48 % Dose
  % Dose/1%-body weight: Blood: 0.633 % Dose/1%-body weight
  % Dose/1%-body weight: Femur: 9.213 % Dose/1%-body weight
  % Dose/1%-body weight: Kidney: 0.972 % Dose/1%-body weight
  % Dose/1%-body weight: Liver: 0.244 % Dose/1%-body weight
  % Dose/1%-body weight: Marrow: 0.152 % Dose/1%-body weight
  % Dose: Urine: 19.67 % Dose
0.5 mg/kg MDP
  % Dose in Whole Organ: Blood: 3.11 % Dose
  % Dose in Whole Organ: Kidneys: 0.45 % Dose
  % Dose in Whole Organ: Liver: 0.69 % Dose
  % Dose in Whole Organ: Marrow: 0.67 % Dose
  % Dose in Whole Organ: Muscle: 5.65 % Dose
  % Dose in Whole Organ: One Femur: 2.96 % Dose
  % Dose/1% Body weight: Blood: 0.45 % Dose/1% body weight
  % Dose/1% Body weight: Femur: 11.32 % Dose/1% body weight
  % Dose/1% Body weight: Kidneys: 0.69 % Dose/1% body weight
  % Dose/1% Body weight: Liver: 0.23 % Dose/1% body weight
  % Dose/1% Body weight: Marrow: 0.30 % Dose/1% body weight
  % Dose/1% Body weight: Muscle: 0.13 % Dose/1% body weight
  % Dose/1% Body weight: Pelvis: 8.68 % Dose/1% body weight
  % Dose/1% Body weight: Spine: 8.92 % Dose/1% body weight
  % Dose/1% Body weight: Tibia: 6.16 % Dose/1% body weight
  % Dose/1% body weight: Ave Bone: 8.77 % Dose/1% body weight
  % Dose: Urine: 15.16 % Dose
